Results taken from US4814341A, “2-guanidino-4-(2-furyl) thiazoles as antiulcer agents” (priority 1988, dated 1989).
Where a name gives a salt, the structure may show the parent alone.

How the values were obtained:
[1] = test system: conscious Heidenhain pouch dogs; experiment: Gastric acid antisecretory activity, pentagastrin-stimulated acid output; assay type: in vivo; settings: 0.1 mg/kg intravenously, overnight-fasted Heidenhain pouch dogs, lowest acid output after drug vs mean before drug
Description: The gastric acid antisecretory activity of compounds of the present invention was determined in overnight-fasted, conscious Heidenhain pouch dogs as follows:
Pentagastrin (Pentavlon-Ayerst) is used to stimulate acid output by continuous infusion into a superficial leg vein at doses earlier determined to stimulate near maximal acid output from the gastric pouch. Gastric juice is collected at 30 minute intervals following the start of a pentagastrin infusion and measured to the nearest 0.1 ml. Ten collections are taken for each dog during an experiment. Acid concentration is determined by titrating 1.0 ml. of gastric juice to pH 7.4 with 0.1N sodium hydroxide using an Autoburette and a glass electrode pH meter (Radiometer).
Drug or vehicle is given intravenously or orally 90 minutes following the start of the pentagastrin infusion, at a dose of 2 mg/kg or less. Gastric acid antisecretory effects are calculated by comparing the lowest acid output after drug administration with the mean acid output immediately before drug.

histamine H2-receptor = target: T1, histamine H2-receptor (Cavia porcellus, UniProt P47747); experiment: Histamine-H2 antagonist activity in isolated right atria; assay type: cell-based, Guinea pigs; settings: guinea pig right atria, histamine dose-response, Krebs-Henseleit buffer pH 7.4, 32°C; read-out: pA2 (converted)
T1 construct: the heart removed and the right atria dissected free; from tissue; host or cells: guinea pig isolated right atria
T1 sequence (P47747 whole entry): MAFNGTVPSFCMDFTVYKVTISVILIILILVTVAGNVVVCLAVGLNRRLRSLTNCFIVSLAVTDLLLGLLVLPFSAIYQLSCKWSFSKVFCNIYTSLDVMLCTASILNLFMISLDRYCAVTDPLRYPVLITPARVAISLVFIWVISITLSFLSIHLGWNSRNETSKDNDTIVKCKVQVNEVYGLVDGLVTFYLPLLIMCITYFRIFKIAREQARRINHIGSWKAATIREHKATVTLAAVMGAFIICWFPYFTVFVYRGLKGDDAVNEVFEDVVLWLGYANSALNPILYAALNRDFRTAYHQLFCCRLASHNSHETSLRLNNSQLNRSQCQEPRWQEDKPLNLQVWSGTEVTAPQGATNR
Description: The histamine-H2 antagonist activity of compounds of the present invention was determined by the following procedure:
Guinea pigs are killed rapidly with a blow to the head, the heart removed and the right atria dissected free. Atria are suspended, isometrically, in a temperature-controlled (32°±2° C.) tissue bath (10 ml.) containing oxygenated (95% O2; 5% CO2) Krebs-Henseleit buffer (pH 7.4) and are allowed to stabilize approximately one hour during which time the tissue bath is flushed several times. Individual atrial contractions are followed with a force-displacement transducer connected to a cardiotachometer and Grass polygraph recorder. After obtaining a dose-response curve to histamine, the bath containing each atrium is flushed several times with fresh buffer and the atria re-equilibrated to basal rates. Following the return to basal rate, test compounds are added at selected final concentrations and the histamine dose-response curve is again determined in the presence of antagonist. Results are expressed as dose-ratios, the ratio of histamine concentrations required to produce one-half of maximal stimulation in the presence and absence of antagonist, and the apparent dissociation constant of the H2 -receptor antagonist pA2, is determined.

male rats = experiment: Inhibition of ethanol-induced ulceration in rats; assay type: in vivo; settings: oral dose of 30 mg/kg, fifteen minutes prior to oral absolute ethanol (1.0 ml); ulcer index vs controls
Description: The antiulcer activity of the products of this invention was determined by an ethanol-induced rat ulcer assay. In this test, overnight fasted male rats are given drug (at 30 or 3 mg/kg) or water orally fifteen minutes prior to an orally administered dose of absolute ethanol (1.0 ml.). One hour after the ethanol challenge the animals (8/group) are killed and the stomachs examined for the presence of lesions. After sacrifice the abdomen is opened and a locking hemostat placed at the pylorus. Six ml. of a 4% solution of formaldehyde is injected into the stomach with a gastric feeding tube and a second locking hemostat is used to seal the esophagus. The stomach is removed, opened along the greater curvature and examined for ulceration.
The scoring system used to quantitate the ethanol-induced lesions is given below.
For each group of animals an ulcer index is calculated as follows: EXAMPLE 8 (Cont.)
Ulceration Index=(the sume of the scores of the group)×(the sum of the number of ulcers in the group)×(the fraction of the group havnng any incidence of ulceration).
The percentage inhibition of ulcers is calculated as follows:
% Inhibition=100×[(ulcer index controls) - (ulcer index drug-treated)][…](ulcer index controls).

Row | Kb (histamine H2-receptor) | Compound | inhibition (gastric acid antisecretory effect) [1] | inhibition of ethanol-induced ulceration (male rats)
1 | 100 nM | CCCCCCN(C)Cc1ccc(-c2csc(NC(=N)N)n2)o1 [3 (2HBr salt), 2-Guanidino-4-(5-[N-n-hexyl-N-methylaminomethyl]-2-furyl)thiazole] | 24% | 49%
2 | 1000 nM | CCCCCCNC(=N)Nc1nc(-c2ccc(CN(C)C)o2)cs1 [4 (2HBr salt), 2-(3-n-Hexylguanidino)-4-(5-[N,N-dimethylaminomethyl]-2-furyl)thiazole] | 38% | 93%
3 | 20 nM | Br.Br.CN(C)Cc1ccc(-c2csc(NC(=N)N)n2)o1 [Example 2, 2-Guanidino-4-(5-[N,N-dimethylaminomethyl]-2-furyl)thiazole Dihydrobromide] | 44% | 7%
